Results as given in patent EP4707280A1, “1,4-CINEOLE DERIVATIVE AND INTERMEDIATE THEREOF, HERBICIDE CONTAINING SAID DERIVATIVE AS ACTIVE INGREDIENT, METHOD FOR USING HERBICIDE, AND METHOD FOR PREPARING AGROCHEMICAL COMPOSITION” (HOKKO CHEMICAL INDUSTRY CO., LTD., priority 2023, dated 2024).

How the values were obtained:
Format in all cases: in vivo
[1] = tested on: Echinochloa crus-galli var. formosensis; test: Test Example 1: herbicidal effect test by soil application in paddy rice; details: 120 g active ingredient per 10 ares, applied immediately after sowing, flooded pots, 14 days after application; for pest or weed control at 1200 g/ha: Echinochloa crus-galli, soil, 336 h, read-out: weed inhibition rate
Experimental: Wagner pots with an area of […] were filled with paddy soil, followed by addition of water and incorporation of chemical fertilizer (N:P:K = 16:16:16), after which puddling was performed. After that, seeds of Echinochloa crus-galli var. formosensis, broad-leaved weeds ([…] Monochoria vaginalis), and Scirpus juncoides were sown at a depth of 0 cm to 1 cm, 30 seeds each. Immediately after sowing, the pots were flooded and a water depth of approximately 3 cm was maintained. Subsequent management was conducted in a glass greenhouse. Immediately thereafter, an emulsifiable concentrate prepared according to Formulation Example 5 using the compound shown below was diluted with water, and a specified amount of the diluted solution was applied by dropper. The amount of the active ingredient to be applied was equivalent to 120 g per 10 ares.

[2] = tested on: Echinochloa crus-galli var. formosensis; test: Test Example 2: herbicidal effect test by application during growth period of paddy rice; details: 120 g per 10 ares, applied seven days after sowing, flooded pots, 14 days after application; for inhibition at 1200 g/ha: Echinochloa crus-galli, read-out: weed inhibition rate
Experimental: (§1) The present test was conducted in duplicate for each chemical concentration group, and the weed inhibition rate (%) was determined 14 days after chemical application using the following formula (Math. 1). [formula]
Wagner pots with an area of […] were filled with paddy soil, followed by addition of water and incorporation of chemical fertilizer (N:P:K = 16:16:16), after which puddling was performed. After that, seeds of Echinochloa crus-galli var. formosensis, broad-leaved weeds (Monochoria vaginalis), and Scirpus juncoides were sown at a depth of 0 cm to 1 cm, 30 seeds each. Immediately after sowing, the pots were flooded and a water depth of approximately 3 cm was maintained. Subsequent management was conducted in a glass greenhouse. Seven days after sowing, an emulsifiable concentrate prepared according to Formulation Example 5 using the compound shown below was diluted with water, and a specified amount of the diluted solution was applied by dropper. The amount of the active ingredient to be applied was equivalent to 120 g per 10 ares. The test was conducted in duplicate for each chemical concentration group, and the herbicidal effect was evaluated 14 days after chemical application using the same criteria as in Test Example 1.

[3] = tested on: Digitaria ciliaris; test: Test Example 3: herbicidal effect test by soil application in upland field; details: 120 g per 10 ares, sprayed one day after sowing, 14 days after application; for inhibition at 1200 g/ha: Digitaria ciliaris, read-out: weed inhibition rate
Experimental: as §1
(§2) Pots with an area of 36 cm^2 were filled with upland soil (alluvial loam), twenty seeds each of weeds of Digitaria ciliaris, Echinochloa crus-galli, Chenopodium album, and Amaranthus viridis were uniformly mixed with the top 1 cm layer of soil and the surface was lightly pressed down. One day after sowing, an emulsifiable concentrate prepared according to Formulation Example 5 using the compound shown below was diluted with water, and the diluted solution was sprayed onto the soil surface at a rate of 100 liters per 10 ares. The amount of the active ingredient to be applied was equivalent to 120 g per 10 ares. Fourteen days after chemical application, the herbicidal effect was evaluated according to the same criteria as in Test Example 1.

[4] = tested on: Echinochloa crus-galli; test: as above; details: 120 g per 10 ares, sprayed one day after sowing, 14 days after application; for inhibition at 1200 g/ha: Echinochloa crus-galli, read-out: weed inhibition rate
Experimental: as §1, §2

[5] = tested on: Digitaria ciliaris; test: Test Example 4: herbicidal effect test by stem and leaf treatment in upland field; details: 120 g per 10 ares, sprayed seven days after sowing, upland soil, 14 days after application; for inhibition at 1200 g/ha: Digitaria ciliaris, read-out: weed inhibition rate
Experimental: as §1
as §2, with “crus-galli,” for “crus-galli, Chenopodium album,”, “Seven days” for “One day”

[6] = tested on: Echinochloa crus-galli; test: as above; details: 120 g per 10 ares, sprayed seven days after sowing, upland soil, 14 days after application; for inhibition at 1200 g/ha: Echinochloa crus-galli, read-out: weed inhibition rate

CC(C)[C@@]12C[C@H](OCc3ccccc3)[C@@](C)(CC1I)O2 (mixture of isomers) [1-1081, (1R,2S,4S,SR)-5-iodo-1-methyl-2-phenylmethoxy-4-isopropyl-7-oxabicyclo[2.2.1]heptane]
≥ 80%: pest or weed control at 1200 g/ha [1] | inhibition at 1200 g/ha [2] | inhibition at 1200 g/ha [3] | inhibition at 1200 g/ha [4] | inhibition at 1200 g/ha [5] | inhibition at 1200 g/ha [6]

CC(C)[C@@]12C[C@H](OCc3ccccc3Br)[C@@](C)(C[C@H]1Br)O2 [1-1034, (1R,2S,4S,5R)-5-bromo-2-[(2-bromophenyl)methoxy]-1-methyl-4-isopropyl-7-oxabicyclo[2.2.1]heptane]
≥ 80%: pest or weed control at 1200 g/ha [1] | inhibition at 1200 g/ha [2] | inhibition at 1200 g/ha [3] | inhibition at 1200 g/ha [4] | inhibition at 1200 g/ha [5] | inhibition at 1200 g/ha [6]

CC(C)C12CC(OCc3ccccc3C(F)(F)F)C(C)(CC1Br)O2 (stereo not drawn) [1-1367, 5-bromo-1-methyl-4-isopropyl-2-[[2-(trifluoromethyl)phenyl]methoxy]-7-oxabicyclo[2.2.1]heptane]
≥ 80%: pest or weed control at 1200 g/ha [1] | inhibition at 1200 g/ha [2] | inhibition at 1200 g/ha [3] | inhibition at 1200 g/ha [4] | inhibition at 1200 g/ha [5] | inhibition at 1200 g/ha [6]

COc1ccccc1CO[C@H]1C[C@@]2(C(C)C)O[C@]1(C)C[C@H]2I [1-1088, (1R,2S,4S,5R)-5-iodo-2-[(2-methoxyphenyl)methoxy]-1-methyl-4-isopropyl-7-oxabicyclo[2.2.1]heptane]
≥ 80%: pest or weed control at 1200 g/ha [1] | inhibition at 1200 g/ha [2] | inhibition at 1200 g/ha [3] | inhibition at 1200 g/ha [4] | inhibition at 1200 g/ha [5] | inhibition at 1200 g/ha [6]

COc1ccccc1CO[C@H]1C[C@@]2(C(C)C)O[C@]1(C)C[C@H]2Br [1-1022, (1R,2S,4S,5R)-5-bromo-2-[(2-methoxyphenyl)methoxy]-1-methyl-4-isopropyl-7-oxabicyclo[2.2.1]heptane]
≥ 80%: pest or weed control at 1200 g/ha [1] | inhibition at 1200 g/ha [2] | inhibition at 1200 g/ha [3] | inhibition at 1200 g/ha [4] | inhibition at 1200 g/ha [5] | inhibition at 1200 g/ha [6]

CC(C)C12CC(OCc3ccc(Cl)cc3)C(C)(CC1Br)O2 (stereo not drawn) [1-1360, 5-bromo-2-[(4-chlorophenyl)methoxy]-1-methyl-4-isopropyl-7-oxabicyclo[2.2.1]heptane]
≥ 80%: pest or weed control at 1200 g/ha [1] | inhibition at 1200 g/ha [2] | inhibition at 1200 g/ha [3] | inhibition at 1200 g/ha [4] | inhibition at 1200 g/ha [5] | inhibition at 1200 g/ha [6]

CC(C)[C@@]12C[C@H](OCc3c(F)cccc3Cl)[C@@](C)(C[C@H]1Br)O2 [1-1054, (1R,2S,4S,5R)-5-bromo-2-[(2-chloro-6-fluorophenyl)methoxy]-1-methyl-4-isopropyl-7-oxabicyclo[2.2.1]heptane]
≥ 80%: pest or weed control at 1200 g/ha [1] | inhibition at 1200 g/ha [2] | inhibition at 1200 g/ha [3] | inhibition at 1200 g/ha [4] | inhibition at 1200 g/ha [5] | inhibition at 1200 g/ha [6]

CC(C)C12CC(OCc3cccc(Br)c3)C(C)(CC1Br)O2 (stereo not drawn) [1-1362, 5-bromo-2-[(3-bromophenyl)methoxy]-1-methyl-4-isopropyl-7-oxabicyclo[2.2.1]heptane]
≥ 80%: pest or weed control at 1200 g/ha [1] | inhibition at 1200 g/ha [2] | inhibition at 1200 g/ha [3] | inhibition at 1200 g/ha [4] | inhibition at 1200 g/ha [5] | inhibition at 1200 g/ha [6]

CC(C)[C@]12C[C@@H](OCc3ccccc3F)[C@](C)(C[C@@H]1OCc1ccccc1)O2 [1-1606, (1S,2R,4R,SS)-2-[(2-fluorophenyl)methoxy]-1-methyl-5-phenylmethoxy-4-isopropyl-7-oxabicyclo[2.2.1]heptane]
≥ 80%: weed inhibition rate [1] | weed inhibition rate [2] | weed inhibition rate [3] | weed inhibition rate [4] | weed inhibition rate [5] | weed inhibition rate [6]

CC(C)[C@@]12C[C@H](OCc3ccccc3F)[C@@](C)(C[C@H]1I)O2 [1-1094, (1R,2S,4S,5R)-2-[(2-fluorophenyl)methoxy]-5-iodo-1-methyl-4-isopropyl-7-oxabicyclo[2.2.1]heptane]
≥ 80%: pest or weed control at 1200 g/ha [1] | inhibition at 1200 g/ha [2] | inhibition at 1200 g/ha [3] | inhibition at 1200 g/ha [4] | inhibition at 1200 g/ha [5] | inhibition at 1200 g/ha [6]

Cc1cccc(C)c1CO[C@H]1C[C@@]2(C(C)C)O[C@]1(C)C[C@H]2Br [1-1608, (1R,2S,4S,5R)-5-bromo-2-[(2,6-dimethylphenyl)methoxy]-1-methyl-4-isopropyl-7-oxabicyclo[2.2.1]heptane]
≥ 80%: pest or weed control at 1200 g/ha [1] | inhibition at 1200 g/ha [2] | inhibition at 1200 g/ha [3] | inhibition at 1200 g/ha [4] | inhibition at 1200 g/ha [5] | inhibition at 1200 g/ha [6]

COC(=O)c1ccccc1COC1CC2(C(C)C)OC1(C)CC2Br (stereo not drawn) [1-1376, methyl 2-[(5-bromo-1-methyl-4-isopropyl-7-oxabicyclo[2.2.1]heptan-2-yl)oxymethyl]benzoate]
≥ 80%: pest or weed control at 1200 g/ha [1] | inhibition at 1200 g/ha [2] | inhibition at 1200 g/ha [3] | inhibition at 1200 g/ha [4] | inhibition at 1200 g/ha [5] | inhibition at 1200 g/ha [6]

CC(C)[C@]12C[C@@H](OCc3cccc(C(F)(F)F)c3)[C@](C)(C[C@@H]1Br)O2 [1-701, (1S,2R,4R,5S)-5-bromo-l-methyl-4-isopropyl-2-[[3-(trifluoromethyl)phenyl]methoxy]-7-oxabicyclo[2.2.1]heptane]
≥ 80%: weed inhibition rate [1] | weed inhibition rate [2] | weed inhibition rate [3] | weed inhibition rate [4] | weed inhibition rate [5] | weed inhibition rate [6]

Cc1ccc(COC2CC3(C(C)C)OC2(C)CC3Br)cc1 (stereo not drawn) [1-1345, 5-bromo-1-methyl-2-[(4-methylphenyl)methoxy]-4-isopropyl-7-oxabicyclo[2.2.1]heptane]
≥ 80%: pest or weed control at 1200 g/ha [1] | inhibition at 1200 g/ha [2] | inhibition at 1200 g/ha [3] | inhibition at 1200 g/ha [4] | inhibition at 1200 g/ha [5] | inhibition at 1200 g/ha [6]

CC(C)C12CC(OCc3cccc(Cl)c3)C(C)(CC1Br)O2 (stereo not drawn) [1-1359, 5-bromo-2-[(3-chlorophenyl)methoxy]-1-methyl-4-isopropyl-7-oxabicyclo[2.2.1]heptane]
≥ 80%: pest or weed control at 1200 g/ha [1] | inhibition at 1200 g/ha [2] | inhibition at 1200 g/ha [3] | inhibition at 1200 g/ha [4] | inhibition at 1200 g/ha [5] | inhibition at 1200 g/ha [6]

CC(C)[C@@]12C[C@H](OCc3ccccn3)[C@@](C)(C[C@H]1Br)O2 [1-1059, 2-[[(1R,2S,4S,5R)-5-bromo-1-methyl-4-isopropyl-7-oxabicyclo[2.2.1]heptan-2-yl]oxymethyl]pyridine]
≥ 80%: pest or weed control at 1200 g/ha [1] | inhibition at 1200 g/ha [2] | inhibition at 1200 g/ha [3] | inhibition at 1200 g/ha [4] | inhibition at 1200 g/ha [5] | inhibition at 1200 g/ha [6]
